Assay results published in patent US20240391958A1, “KEANUMYCINS AND USES THEREOF IN MEDICINE AND PLANT PROTECTION” (Leibniz-Institut für Naturstoff-Forschung und …, priority 2023, published 2024).
Where a SMILES comes first, the peptide text is derived from it. Bridges are numbered along the chain shown (N, C = ends). [ ]: non-standard residue; d: D form. The star is where a group is joined. X1 = CCCCCCCCCCCC[C@@H](O)[C@@H](O)CC(=O)*; Asp(3S-OH) = N[C@H](C(=O)O)[C@H](O)C(=O)O; Thr(4-Cl) = N[C@H](C(=O)O)[C@H](O)CCl; aThr = C[C@H](O)[C@H](N)C(=O)O; d(hSer) = N[C@H](CCO)C(=O)O; dDab = NCC[C@@H](N)C(=O)O; Dab = NCC[C@H](N)C(=O)O; Dhb = C/C=C(\N)C(=O)O

Test system: A. castellanii
Test: Amoebicidal activity against Acanthamoeba (resazurin assay)
Assay type: cell-based
Conditions: 96 h, 28 °C, average of two experiments
Description: Amoebicidal activity of keanumycin A against Acanthamoeba was determined by culturing A. castellanii or A. comandoni in 96-well plates (Sarstedt) in 100 μL PYG medium (ATCC Medium 712; https://www.atcc.org) containing 1% DMSO (Carl Roth) and a specified amount of compound (starting from 50 μM; 2-fold serial dilution) in triplicates at 28° C. After 96 h the cell viability was determined using a resazurin assay. Therefore, 20 μL of a 1 mM resazurin sodium (Sigma) solution in water was added per single well before it was allowed to incubate for another 3 h at 28° C. Using a plate reader (Tecan Life Sciences, excitation 560 nm and emission 590 nm) the fluorescence emission was determined. The fluorescence (including standard deviation) was plotted against the logarithmic concentration of the compound and the IC50 value was determined using PRISM (GraphPad, Version 5.03).

SMILES: C/C=C1\NC(=O)[C@H]([C@H](C)O)NC(=O)[C@H](CCN)NC(=O)[C@@H](CCO)NC(=O)CNC(=O)[C@@H](CCN)NC(=O)[C@@H](NC(=O)C[C@H](O)[C@H](O)CCCCCCCCCCCC)COC(=O)[C@H]([C@H](O)CCl)NC(=O)[C@H]([C@H](O)C(=O)O)NC1=O [Keanumycin A, keanumycin A] (X1-S[dDab]G[d(hSer)][Dab][aThr][Dhb][Asp(3S-OH)][Thr(4-Cl)]; ester 1-C)
- IC50: 2000 nM
